Laboratory results taken from paper PMC11289669, “BAR502/fibrate conjugates: synthesis, biological evaluation and metabolic profile” (Frontiers in Chemistry, 2024).
Where “and” joins values, the source holds several entries; their conditions need not be identical. Equal entries are not always repeated.

Key:
[1] = biological target: T1, FXR (Homo sapiens, UniProt Q96RI1); assay: FXR transactivation (luciferase reporter) assay in HepG2 cells; format: cell-based; conditions: for EC50: HepG2 cells
T1 construct: expressed in transfected cells; host or cells: HepG2 (the text says EC50 dose-response curves were run in HEK-293T)
T1 sequence (Q96RI1 1-486): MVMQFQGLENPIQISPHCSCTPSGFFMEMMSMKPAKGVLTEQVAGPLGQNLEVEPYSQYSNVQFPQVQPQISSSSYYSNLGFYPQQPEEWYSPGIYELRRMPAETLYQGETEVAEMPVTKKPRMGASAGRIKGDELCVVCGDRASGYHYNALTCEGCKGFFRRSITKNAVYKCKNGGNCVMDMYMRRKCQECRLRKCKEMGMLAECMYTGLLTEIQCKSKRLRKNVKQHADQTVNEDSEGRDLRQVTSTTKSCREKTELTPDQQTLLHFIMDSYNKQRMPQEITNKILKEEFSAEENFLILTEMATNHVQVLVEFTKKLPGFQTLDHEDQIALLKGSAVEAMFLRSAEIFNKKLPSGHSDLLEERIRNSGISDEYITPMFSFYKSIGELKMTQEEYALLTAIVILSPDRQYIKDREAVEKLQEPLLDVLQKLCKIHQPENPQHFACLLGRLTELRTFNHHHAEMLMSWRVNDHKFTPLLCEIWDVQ
T1 sequence (P19793 1-462 partner): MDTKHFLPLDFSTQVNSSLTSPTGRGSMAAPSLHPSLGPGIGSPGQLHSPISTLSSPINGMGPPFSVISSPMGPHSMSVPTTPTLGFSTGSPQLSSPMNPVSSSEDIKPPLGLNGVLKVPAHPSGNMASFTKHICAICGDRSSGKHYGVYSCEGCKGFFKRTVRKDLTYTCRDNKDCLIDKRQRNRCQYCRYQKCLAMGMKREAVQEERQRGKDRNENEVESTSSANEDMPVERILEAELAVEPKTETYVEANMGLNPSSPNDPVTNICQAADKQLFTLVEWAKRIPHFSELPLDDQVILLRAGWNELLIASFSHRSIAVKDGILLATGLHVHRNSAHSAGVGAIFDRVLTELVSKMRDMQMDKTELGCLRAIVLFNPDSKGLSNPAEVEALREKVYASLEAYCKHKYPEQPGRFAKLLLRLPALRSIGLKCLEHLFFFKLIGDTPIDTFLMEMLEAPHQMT
Procedure: (§1) HepG2 and HEK-293T cells were cultured at 37 °C in minimal essential medium (MEM) and Dulbecco’s Modified Eagle Medium (DMEM) respectively, supplemented with 10% fetal bovine serum, 1% L-glutamine, 100 U/mL penicillin, and 100 μg/mL streptomycin. To investigate FXR-mediated transactivation, the HepG2 cells were transfected with 200 ng of the reporter vector p (hsp27)TK-Luc containing the FXR response element IR1 cloned from the promoter of heat shock protein 27 (hsp27), plus 100 ng pSG5-FXR, 100 ng pSG5-RXR, and 100 ng pGL4.70 Renilla. To evaluate GPBAR1 mediated transactivation, HEK-293T cells were transfected with 200 ng of human pGL4.29 (Promega), a reporter vector containing a cAMP response element (CRE) that drives the transcription of the luciferase reporter gene luc2P, with 100 ng of pCMVSPORT6-human GPBAR1, and with 100 ng of pGL4.70. At 24 h post-transfection, cells were stimulated 18 h with 10 μM TLCA (taurolithocholic acid a GPBAR1 agonist) or CDCA (FXR agonist) and compounds. To calculate the EC50 on FXR and GPBAR1, dose-response curves were performed in HEK-293T cells transfected as described above and then treated with increasing concentrations of compounds (from 0.1 to 50 µM). After treatments, cells were lysed in 100 μL of lysis buffer (25 mM Tris-phosphate, pH 7.8; 2 mM DTT; 10% glycerol; 1% Triton X-100), and 10 μL of cellular lysate was assayed for luciferase activity using the Firfly &Renilla Luciferase assay kit (Biotium). Luminescence was measured using Glomax 20/20 luminometer (Promega). Luciferase activities were assayed and normalized with Renilla activities.

[2] = biological target: T2, PPARα (Homo sapiens, UniProt Q07869); assay: AlphaScreen coactivator (SRC-1) recruitment assay on PPARα; format: biochemical; conditions: AlphaScreen SRC-1 recruitment; compounds at 50 µM (footnote); fenofibrate = 100%
T2 construct: 20 nM PPARα LBD GST fused (Thermo Scientific); purchased Thermo Scientific
T2 sequence (Q07869 239-466 limits assumed): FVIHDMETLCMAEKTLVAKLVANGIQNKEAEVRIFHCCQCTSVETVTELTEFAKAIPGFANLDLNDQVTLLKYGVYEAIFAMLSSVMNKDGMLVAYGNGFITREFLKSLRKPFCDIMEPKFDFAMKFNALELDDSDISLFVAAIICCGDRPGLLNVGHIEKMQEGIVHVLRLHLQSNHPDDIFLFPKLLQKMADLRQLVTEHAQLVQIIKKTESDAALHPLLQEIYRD
Procedure: Compounds’ ability to mediate cofactor recruitment was evaluated by employing AlphaScreen GST Detection Kit (PerkinElmer). Particularly, FXR agonism was evaluated employing 10 nM FXR-LBD GST-fused (Thermo Scientific) and 30 nM of biotinylated SRC1 peptide ([…]) in the presence of 20 μg/mL donor and acceptor beads and in buffer containing 50 mM Tris-HCl (pH7.4), 20 mM KCl, 1 mM DTT, and 0.1% BSA. For PPARα assay, a buffer containing 50 mM MOPS, 50 mM NaF, 0.05 mM CHAPS, and 0.05% BSA (pH = 7.4) was used, and 20 nM PPARα LBD GST fused (Thermo Scientific) and 60 nM of biotinylated SRC1 peptide were employed. Both acceptor and donor beads were added to reach 20 μg/mL final concentration. Incubations were performed in a final volume of 25 μL employing 384 wells Optiplate and Alpha signal was measured with Envision 2,105 (Perkin Elmer) multimode plate reader. […]

[3] = biological target: T3, GPBAR1 (Homo sapiens, UniProt Q8TDU6); assay: GPBAR1 transactivation (CRE-luciferase reporter) assay in HEK-293T cells; format: cell-based; conditions: for EC50: transactivation assay, HEK-293T cells; for GPBAR1 efficacy (% vs. TLCA) / Emax: transactivation on HEK-293T cells, TLCA 10 μM = 100%; for Emax: 18 h, read-out: GPBAR1 efficacy (% vs. TLCA)
T3 construct: expressed in transfected cells; host or cells: HEK-293T
T3 sequence (Q8TDU6 1-330): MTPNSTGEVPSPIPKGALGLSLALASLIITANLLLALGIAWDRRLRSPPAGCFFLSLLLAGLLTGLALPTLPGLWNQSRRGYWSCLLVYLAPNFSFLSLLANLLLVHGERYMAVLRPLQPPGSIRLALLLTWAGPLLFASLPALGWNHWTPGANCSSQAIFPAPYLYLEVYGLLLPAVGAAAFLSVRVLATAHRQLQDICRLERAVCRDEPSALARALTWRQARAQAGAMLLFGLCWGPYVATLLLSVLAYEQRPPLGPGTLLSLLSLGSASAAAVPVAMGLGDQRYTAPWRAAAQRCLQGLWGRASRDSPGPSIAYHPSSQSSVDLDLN
Procedure: as §1

[4] = biological target: T4, FXR (Homo sapiens, UniProt Q96RI1); assay: AlphaScreen coactivator (SRC-1) recruitment assay on FXR; format: biochemical; conditions: for FXR efficacy (% vs. CDCA): AlphaScreen SRC-1 recruitment, compounds at 10 μM, CDCA = 100%
T4 sequence (Q96RI1 262-486 limits assumed): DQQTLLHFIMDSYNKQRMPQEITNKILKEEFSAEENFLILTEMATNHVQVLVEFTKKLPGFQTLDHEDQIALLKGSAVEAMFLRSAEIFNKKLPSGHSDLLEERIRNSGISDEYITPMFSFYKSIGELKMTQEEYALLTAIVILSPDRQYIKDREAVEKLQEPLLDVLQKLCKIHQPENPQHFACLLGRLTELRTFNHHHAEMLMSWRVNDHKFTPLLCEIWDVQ
Procedure: Compounds’ ability to mediate cofactor recruitment was evaluated by employing AlphaScreen GST Detection Kit (PerkinElmer). Particularly, FXR agonism was evaluated employing 10 nM FXR-LBD GST-fused (Thermo Scientific) and 30 nM of biotinylated SRC1 peptide ([…]) in the presence of 20 μg/mL donor and acceptor beads and in buffer containing 50 mM Tris-HCl (pH7.4), 20 mM KCl, 1 mM DTT, and 0.1% BSA. For PPARα assay, a buffer containing 50 mM MOPS, 50 mM NaF, 0.05 mM CHAPS, and 0.05% BSA (pH = 7.4) was used, and 20 nM PPARα LBD GST fused (Thermo Scientific) and 60 nM of biotinylated SRC1 peptide were employed. Both acceptor and donor beads were added to reach 20 μg/mL final concentration. Incubations were performed in a final volume of 25 μL employing 384 wells Optiplate and Alpha signal was measured with Envision 2,105 (Perkin Elmer) multimode plate reader. For efficacy, compounds were tested at 10 μM for FXR and 50 μM for PPARα.

Row | Compound | FXR efficacy vs. CDCA (transactivation) [1] | EC50 [1] | PPARα efficacy (% vs. fenofibrate) [2] | EC50 [3] | GPBAR1 efficacy (% vs. TLCA) [3] | Emax [3] | FXR efficacy (% vs. CDCA) [4] | EC50 ([4]; AlphaScreen coactivator recruitment, FXR with SRC-1)
1 | CCC1C(O)C2C3CCC(C(C)CC(=O)O)C3(C)CCC2C2(C)CCC(O)CC12 (stereo not drawn) [BAR505, reference compound] | 457% | 1.9 ± 0.14 µM | 40% | 3.2 ± 1.1 µM | 103.6% |  |  | 
2 | CC[C@@H]1C2C[C@H](OC(=O)C(C)(C)Oc3ccc(Cl)cc3)CC[C@]2(C)C2CC[C@@]3(C)C(CC[C@@H]3[C@H](C)CCO)C2[C@@H]1O (stereo partly drawn) [Compound 2] |  |  |  |  |  | 46 ± 16% |  | 
3 | CC[C@@H]1C2C[C@H](OC(=O)C(C)(C)CCCOc3cc(C)ccc3C)CC[C@]2(C)C2CC[C@@]3(C)C(CC[C@@H]3[C@H](C)CCO)C2[C@@H]1O (stereo partly drawn) [Compound 8] |  |  | 5.3 ± 0.8% |  |  | 29.4 ± 5.1% |  | 
4 | CC[C@@H]1C2C[C@H](O)CC[C@]2(C)C2CC[C@@]3(C)C(CC[C@@H]3[C@H](C)CCOC(=O)C(C)(C)CCCOc3cc(C)ccc3C)C2[C@@H]1O (stereo partly drawn) [Compound 7] |  |  | 22 ± 18% |  |  | 14 ± 1.3% | 4.1 ± 0.6% | 
5 | CC[C@@H]1C2C[C@H](O)CC[C@]2(C)C2CC[C@@]3(C)C(CC[C@@H]3[C@H](C)CCOC(=O)C(C)(C)Oc3ccc(C(=O)c4ccc(Cl)cc4)cc3)C2[C@@H]1O (stereo partly drawn) [Compound 4] |  |  | 13 ± 3% |  |  | 41 ± 3% | 14.0 ± 1.8% | 
6 | CC[C@@H]1C2C[C@H](OC(=O)C(C)(C)Oc3ccc(C(=O)c4ccc(Cl)cc4)cc3)CC[C@]2(C)C2CC[C@@]3(C)C(CC[C@@H]3[C@H](C)CCOC(=O)C(C)(C)Oc3ccc(C(=O)c4ccc(Cl)cc4)cc3)C2[C@@H]1O (stereo partly drawn) [Compound 6] |  |  | 1.7 ± 0.5% |  |  | 30 ± 17% |  | 
7 | CC[C@@H]1C2C[C@H](OC(=O)C(C)(C)Oc3ccc(C(=O)c4ccc(Cl)cc4)cc3)CC[C@]2(C)C2CC[C@@]3(C)C(CC[C@@H]3[C@H](C)CCO)C2[C@@H]1O (stereo partly drawn) [Compound 5] |  |  | 6.6 ± 1.9% |  |  | 40 ± 0.7% |  | 
8 | CC[C@@H]1C2C[C@H](OC(=O)C(C)(C)CCCOc3cc(C)ccc3C)CC[C@]2(C)C2CC[C@@]3(C)C(CC[C@@H]3[C@H](C)CCOC(=O)C(C)(C)CCCOc3cc(C)ccc3C)C2[C@@H]1O (stereo partly drawn) [Compound 9] |  |  |  |  |  | 28.5 ± 0.4% | 5.1 ± 1.9% | 
9 | CC[C@@H]1C2C[C@H](OC(=O)C(C)(C)Oc3ccc(Cl)cc3)CC[C@]2(C)C2CC[C@@]3(C)C(CC[C@@H]3[C@H](C)CCOC(=O)C(C)(C)Oc3ccc(Cl)cc3)C2[C@@H]1O (stereo partly drawn) [Compound 3] |  | 25 ± 0.01 µM | 27 ± 10% | 1.8 ± 0.35 µM | 101.0 ± 0.4% | 101% | 48% and 48.0 ± 5.5% | 17.9 ± 2.6 µM
